Experimental data taken from PMC4521150, “Discovery of Novel Inhibitors and Fluorescent Probe Targeting NAMPT” (Scientific Reports, 2015).

Legend:
recombinant human NAMPT [1] = molecular target: T1, recombinant human NAMPT (Homo sapiens, UniProt P43490); assay: NAMPT activity assay, IC50 determination (fluorometric detection of NMN derivative); details: molecular/biochemical assay, read-out: IC50 (NAMPT inhibition)
T1 construct: His tag (N); made in house; host or cells: E. coli BL21-CodonPlus (DE3)-RIL, pET21a+ vector
T1 sequence (P43490 whole entry): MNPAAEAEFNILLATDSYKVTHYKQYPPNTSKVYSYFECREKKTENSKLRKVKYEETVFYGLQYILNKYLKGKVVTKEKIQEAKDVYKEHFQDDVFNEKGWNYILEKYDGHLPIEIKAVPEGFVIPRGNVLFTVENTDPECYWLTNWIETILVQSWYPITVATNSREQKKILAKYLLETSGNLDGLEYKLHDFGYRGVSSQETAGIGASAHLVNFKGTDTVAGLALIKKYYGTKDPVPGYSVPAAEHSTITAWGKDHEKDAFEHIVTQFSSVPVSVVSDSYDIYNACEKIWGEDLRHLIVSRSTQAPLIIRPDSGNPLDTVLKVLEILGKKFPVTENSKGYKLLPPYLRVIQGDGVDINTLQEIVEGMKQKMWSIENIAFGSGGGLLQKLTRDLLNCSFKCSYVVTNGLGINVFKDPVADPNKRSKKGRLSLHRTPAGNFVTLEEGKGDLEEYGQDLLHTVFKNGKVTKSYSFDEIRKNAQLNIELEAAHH
Source text: Using our previously established high throughput screening (HTS) platform and recombinant human NAMPT[14][15], we performed a HTS on a chemical library containing 30000 small-molecules (Chemdiv, CA, USA). Our HTS targeting NAMPT was developed based on a fluorometric method for NAMPT activity assay by measuring the fluorescence of nicotinamide mononucleotide (NMN) derivative resulting from the NAMPT enzymatic product NMN through simple chemical reactions (Fig. 1A). […] These fluorescent and non-fluorescent compounds were further studied separately.
HTS was performed using our previously reported method. 0.5 μl stock of each compound (1 mM DMSO stock) was transferred to a 96-well PCR plate for screening. In the primary screening, 5 ng NAMPT in 20 μl reaction buffer [0.4 mM phosphoribosylpyrophosphate (PRPP, Sigma), 2 mM ATP, 0.02% BSA, 2 mM DTT, 12 mM MgCl2 and 50 mM Tris-HCl (pH = 7.5)] was added into each well, the plate was incubated at 37 °C for 5 min, then 4.5 μl substrate of NAM was added to initiate the enzyme reaction, resulting in a final concentration of 2% DMSO, 2 μg/ml NAMPT, 0.2 μM NAM and 20 μM compound. After reacting at 37 °C for 15 min, the enzyme reaction was terminated by heating at 95 °C for 1 min and cooling in an ice bath. The product of NMN was detected through the following approach: after adding 10 μl 20% acetophenone in DMSO and 10 μl 2 M KOH into each well, the mixture was vortex-mixed and kept in ice bath for 2 min. […] Finally, 85 μl mixtures in each well were transferred into a flat-bottom 96-well black plate (Greiner), and the fluorescence (F) was measured using a Tecan Infinity M200 plate reader (Tecan Group Ltd.) by setting the excitation and emission wavelength to 382 nm and 445 nm respectively. The last row of each 96-well plate includes six wells of background controls and six wells of reference controls. The relative enzyme activity (Activity%) regulated by specific compound was calculated according to equation (1): […]
To determine the IC50 of inhibitors, 0.5 μl compound stocks with various concentrations were added into 96-well plate. The plate was incubated at 37 °C for 5 min after addition of 20 μl reaction buffer containing NAMPT. […] The IC50 values were determined by non-linear fitting of the concentration-dependent curves with the four-parameter IC50 logistic equation.

recombinant human NAMPT [2] = molecular target: T1, recombinant human NAMPT; assay: HTS / fixed-concentration NAMPT activity screen (fluorometric); type: biochemical; details: 20 μM compound; analogues of the 46 non-fluorescent inhibitors
Source text: Using our previously established high throughput screening (HTS) platform and recombinant human NAMPT[14][15], we performed a HTS on a chemical library containing 30000 small-molecules (Chemdiv, CA, USA). Our HTS targeting NAMPT was developed based on a fluorometric method for NAMPT activity assay by measuring the fluorescence of nicotinamide mononucleotide (NMN) derivative resulting from the NAMPT enzymatic product NMN through simple chemical reactions (Fig. 1A). The 30000 compounds were dissolved with dimethyl sulfoxide (DMSO); most of compounds were soluble at 10 mM stock solution (94.1%), some compounds insoluble at 10 mM were soluble at 2.5 mM stock solution (4.4%), and the remaining compounds insoluble at 2.5 mM (1.5%) were diluted further during HTS experiments (Fig. 1B). To guarantee the quality of screening, S/N ratio, CV and Z’ factors were monitored throughout the screenings, and all three indices met the requirements of HTS (Fig. 1C–E). After a primary screen and a secondary screen of all compounds at 20 μM, 242 compounds were selected as the hits of NAMPT inhibitors (NAMPT activity < 40%), and the hit rate was ~0.8% (Fig. 1F). […] All these 55 compounds were not reported as NAMPT inhibitors previously. Among the 55 compounds, we noted 46 compounds were non-fluorescent and 9 compounds were fluorescent (Fig. 1F). These fluorescent and non-fluorescent compounds were further studied separately.
HTS was performed using our previously reported method. 0.5 μl stock of each compound (1 mM DMSO stock) was transferred to a 96-well PCR plate for screening. In the primary screening, 5 ng NAMPT in 20 μl reaction buffer [0.4 mM phosphoribosylpyrophosphate (PRPP, Sigma), 2 mM ATP, 0.02% BSA, 2 mM DTT, 12 mM MgCl2 and 50 mM Tris-HCl (pH = 7.5)] was added into each well, the plate was incubated at 37 °C for 5 min, then 4.5 μl substrate of NAM was added to initiate the enzyme reaction, resulting in a final concentration of 2% DMSO, 2 μg/ml NAMPT, 0.2 μM NAM and 20 μM compound. After reacting at 37 °C for 15 min, the enzyme reaction was terminated by heating at 95 °C for 1 min and cooling in an ice bath. The product of NMN was detected through the following approach: after adding 10 μl 20% acetophenone in DMSO and 10 μl 2 M KOH into each well, the mixture was vortex-mixed and kept in ice bath for 2 min. Then 45 μl 88% formic acid was added and the mixture was incubated at 37 °C for 10 min. Finally, 85 μl mixtures in each well were transferred into a flat-bottom 96-well black plate (Greiner), and the fluorescence (F) was measured using a Tecan Infinity M200 plate reader (Tecan Group Ltd.) by setting the excitation and emission wavelength to 382 nm and 445 nm respectively. The last row of each 96-well plate includes six wells of background controls and six wells of reference controls. The relative enzyme activity (Activity%) regulated by specific compound was calculated according to equation (1):
F0 was the averaged fluorescence of six background controls, representing zero activity from a simulated enzyme reaction with only NAMPT but no NAM and compound; F100% was the averaged fluorescence of six reference controls, representing 100% activity from intact enzyme reaction without compound perturbation.
Compounds with Activity% less than 40% were considered as inhibitors and subjected to a secondary screen inhibition validation, in which another background control (FC0), a simulated enzyme reaction with NAMPT and compound but no NAM, was introduced to eliminate the direct and/or indirect influence from compound. At this stage, the Activity% was calculated according to equation (2): […]

HepG2 cells = assay: Cell viability assay (CCK-8) in HepG2 cells; type: cell-based, human; details: 2 μM, 48 hours of incubation
Protocol: Cell viability was determined by our previous method[27] using the Cell Counting Kit-8 (CCK-8, Dojindo, Japan). In human hepatocellular carcinoma cell line HepG2, cells were seeded in 96-well plate and starved for over 12 h with serum-free DMEM at 60~70% confluency, then treated with compounds or vehicle for 48 h. To determine the IC50 values of inhibitors, compounds with various concentrations were added into the 96-well plate. 10 μl CCK-8 solution was added to the culture medium and incubated at 37 °C for 1 h. The absorbance at 450 nm (A450) was detected by a plate reader. Each experiment was carried out in triplicate in three replicate wells. The IC50 values were determined by non-linear fitting of the concentration-dependent curves with the four-parameter IC50 logistic equation.

SMILES	IC50 (recombinant human NAMPT [1]) [nM]	NAMPT inhibition activity at 20 μM (recombinant human NAMPT [2])	Effect on HepG2 cell viability at 2 μM (HepG2 cells)
CC(=O)C1=C(C)Nc2ccccc2S1 [1932-0007]	408.6 ± 1.83		
O=C(CSC1=Nc2ccccc2N=C(c2cccs2)C1)Nc1ccc2c(c1)OCCO2 [C201-1487]	172 ± 17.3	Yes	
O=C(CSC1=Nc2ccccc2N=C(c2ccccn2)C1)Nc1ccc2c(c1)OCCO2 [C201-1928]	1450 ± 51.7		
O=C(NCc1ccc(Cl)cc1)c1ccc(CNc2c(N3CCCCC3)c(=O)c2=O)cc1 [C804-0859]	704 ± 16.7		
CC1CCN(c2c(NCc3ccc(C(=O)NCCc4ccccc4)cc3)c(=O)c2=O)CC1 [C852-0409]	1280 ± 154		
CC1CCN(c2c(NCc3ccc(C(=O)NCc4ccc(F)cc4)cc3)c(=O)c2=O)CC1 [C852-0431]	869 ± 67.2		
CCCc1cc(Nc2ccc(C(=O)NCc3cccnc3)cc2)n2nc(-c3cccnc3)nc2n1 [D515-0654]	283 ± 19.2		significant inhibition on cell viability
O=C(Nc1cccnc1)c1ccc(-n2cnnn2)cc1 [D633-0045]	416 ± 30.7		
Cc1nn(CCCC(=O)Nc2cccc(F)c2)c(=O)c2c1sc1ccccc12 [E019-0970]	298 ± 32.1		
CC(=O)c1ccc(NC(=O)Cc2noc3ccccc23)cc1 [E207-0481]	739 ± 37.8		
O=C(NCc1ccccc1)c1ccc(Cn2c(=O)c3cccn3c3cccnc32)cc1 [E524-1566]	140 ± 7.31		significant inhibition on cell viability
CC(C)CCNC(=O)c1ccc(Cn2c(=O)c3cccn3c3cccnc32)cc1 [E524-1626]	393 ± 8.51		
Cc1ccccc1CCNC(=O)c1ccc(Cn2c(=O)c3cccn3c3cccnc32)cc1 [E524-1763]	253 ± 17.9		
O=C(NCc1noc2ccccc12)NC1CCCCC1 [E567-0011]	1620 ± 57.9		
COc1ccc(NC(=O)NCc2noc3ccccc23)cc1Cl [E567-0014]	411 ± 28.1		
COc1ccc(NC(=O)NCc2noc3ccccc23)cc1 [E567-0222]	171 ± 10.7		significant inhibition on cell viability
CC(=O)c1cccc(NC(=O)NCc2noc3ccccc23)c1 [E567-0248]	250 ± 40.7		
COc1ccc(CCNC(=O)NCc2noc3ccccc23)c(OC)c1 [E567-0299]	202 ± 17.6		
COc1ccc(OC)c(CCNC(=O)NCc2noc3ccccc23)c1 [E567-0302]	401 ± 11.2		
Cc1cc2nc(C)c(=O)n(Cc3ccc(C(=O)NCc4ccccn4)cc3)c2cc1C [F671-0199]	171 ± 16.8		
CCn1c(=O)c(=O)n(Cc2ccc(C(=O)NCc3cccc(Cl)c3)cc2)c2cccnc21 [F704-0076]	1000 ± 57		
CCn1c(=O)c(=O)n(Cc2ccc(C(=O)NCc3ccc(Cl)cc3)cc2)c2cccnc21 [F704-0088]	296 ± 7.61		
CCn1c(=O)c(=O)n(Cc2ccc(C(=O)NCc3ccccc3F)cc2)c2cccnc21 [F704-0231]	1450 ± 143		
CCn1c(=O)c(=O)n(Cc2ccc(C(=O)NCc3cccc(Br)c3)cc2)c2cccnc21 [F704-0251]	517 ± 37.9		
O=C(NCCCN1CCCC1=O)c1ccc(N2CCc3ccccc32)s1 [G122-1637]	411 ± 148		

These reach a lower IC50 (recombinant human NAMPT [1]). Values come first.

IC50 (recombinant human NAMPT [1]) [nM]	NAMPT inhibition activity at 20 μM (recombinant human NAMPT [2])	SMILES	Effect on HepG2 cell viability at 2 μM (HepG2 cells)
59.4 ± 1.15		O=C(CSc1nc2c(c(C(F)(F)F)n1)CCc1ccccc1-2)NCCCn1ccnc1 [6466-0191]	
75.9 ± 3.51		COc1ccc(CNC(=O)c2ccc(Cn3c(=O)c4cccn4c4cccnc43)cc2)cc1 [E524-1597]	
97.8 ± 3.13		Cc1ccc(CNC(=O)c2ccc(Cn3c(=O)c4cccn4c4cccnc43)cc2)cc1 [E524-1599]	significant inhibition on cell viability
85.5 ± 11.1		Cc1cccc(CNC(=O)c2ccc(Cn3c(=O)c4cccn4c4cccnc43)cc2)c1 [E524-1627]	significant inhibition on cell viability
70.9 ± 0.74		O=C(NCCc1ccccc1)c1ccc(Cn2c(=O)c3cccn3c3cccnc32)cc1 [E524-1628]	
62.6 ± 2.89		CCc1ccc(NC(=O)NCc2noc3ccccc23)cc1 [E567-0089]	
86.9 ± 2.77		CCOC(=O)c1ccc(NC(=O)NCc2noc3ccccc23)cc1 [E567-0238]	
126 ± 4.23		CSc1ccc(CCNC(=O)NCc2noc3ccccc23)cc1 [E567-0304]	
116 ± 13.1		CN1C(=O)C(C)(C)c2cc(S(=O)(=O)NCc3ccc(C(=O)NCc4cccnc4)cc3)ccc21 [E589-3083]	
60.2 ± 3.63	Yes	O=C(Nc1ccc(OCc2nnc(-c3ccccc3)o2)cc1)c1cnccn1 [M350-0100]	significant inhibition on cell viability
118 ± 10.7		COc1ccc(-c2nnc(COc3ccc(NC(=O)c4cnccn4)cc3)o2)cc1 [M350-0814]	significant inhibition on cell viability
60.8 ± 2.61		Cc1ccccc1-c1nnc(COc2ccc(NC(=O)c3cnccn3)cc2)o1 [M350-1052]	
